Patent US20140335210A1, “METHOD AND AGROCHEMICAL COMPOSITION FOR USING LARCH WOOD EXTRACTS IN AGRICULTURE” (FLAVITPURE, INC., priority 2013, published 2014)
Where two headings read alike, the source gives them in different places.

How the values were obtained:
[1] = test system: polar transport of indol-3yl-acetic acid; details: 4-6 h; stimulation of basipetal, inhibition of acropetal transport; cited from earlier work
P. expansum [2] = details: in vitro, agarized apple juice medium; cited from earlier work
P. expansum [3] = test system: P. expansum; parameters: reduction of lesion diameters: concentration or dose not given beside the values; details: cited from earlier work; for reduction of lesion diameters: apples Golden Delicious, 16° C. in the dark; for patulin accumulation in apples: in vivo, lesions analyzed by HPLC after 14 days
[4] = test system: cyp705a5 mutant phenotype; details: 15 μM in the growth medium; cited from earlier work
cress seedlings = details: biphasic, dose dependent; cited from earlier work
white potato tissue = details: biphasic, dose dependent; cited from earlier work
Fusarium = details: about 0.60 to 0.70 mg per 100 g dry weight accumulated in the testa of ant18 mutants
[5] = test system: vacuolar membrane (H+-ATPase and H+-pyrophosphatase), slow vacuolar (SV) channel; details: cited from earlier work
cut seed potatoes = details: cited from earlier work
[6] = test system: dihydrotlavonol 4-reductase (DFR); details: grape cell cultures, addition of compound; cited from earlier work
[7] = test system: Barley (Hordeumvulgare L.) seeds; details: cited from earlier work
[8] = low-grade seeds soaked in aqueous 10^-4 M

SMILES	polarity of the transport of indol-3yl-acetic acid [1]	fungal growth (P. expansum [2])	reduction of patulin accumulation (P. expansum [2])	reduction of lesion diameters (P. expansum [3]; after 6 days of incubation)	reduction of lesion diameters (P. expansum [3]; after 10 days of incubation)	reduction of lesion diameters (P. expansum [3]; after 14 days of incubation)	patulin accumulation in apples (P. expansum [3])	also measured
C[C@@H]1O[C@@H](O[C@H]2[C@H](Oc3cc(O)c4c(c3)O[C@H](c3ccc(O)cc3)CC4=O)O[C@H](CO)[C@@H](O)[C@@H]2O)[C@H](O)[C@H](O)[C@H]1O [naringin]	increased	–	–	–	–	–	–	–
O=c1c(O)c(-c2ccc(O)cc2O)oc2cc(O)cc(O)c12 [morin]	increased	–	–	–	–	–	–	–
O=c1ccc2ccc(O)cc2o1 [umbelliferone, reference compound]	–	no inhibition	53%	100%	68%	38%	no reduction	–
COc1cc(/C=C/C(=O)O)ccc1O [ferulic acid]	increased	–	–	–	–	–	–	–
O=C1/C(=C/c2ccc(O)c(O)c2)Oc2cc(O)ccc21 [sulfuretin]	increased	–	–	–	–	–	–	–
O=C1c2c(O)cc(O)cc2OC(c2ccc(O)c(O)c2)C1O (stereo not drawn) [Dihydroquercetin (taxifolin)]	increased	no inhibition	48%	97%	71%	27%	no reduction	phenotype restored, of the wild type gravity response [4]: ≥ 100%; root growth of cress seedlings (cress seedlings): increased; oxygen consumption of white potato tissue (white potato tissue): stimulated; resistance of seeds to Fusarium infection (Fusarium): extraordinary resistance; active and passive transport systems of the vacuolar membrane [5]: affected; effect on the membranes of isolated vacuoles ([5]; isolated vacuoles): strong stabilizing effect; fungal mold growth on treated seed pieces (cut seed potatoes; incubated in a controlled environment): adequately retarded; thickness of the suberized layer formed below the cut surface (cut seed potatoes; treated seed potato tissue): increases; increase in dihydrotlavonol 4-reductase (DFR) activity [6]: 10 fold; activity of ascorbate peroxidase (AsP) ([7]; (+DHQ)-plants): increased more significantly; ratio between TBARs content and AsP activity ([7]; leaves, optimal soil conditions and flooding): lower; germination rate in comparison with the same seeds soaked in water [7, 8]: twofold; mold on seeds [7, 8]: no mold; root growth ([7]; seedlings from pretreated seeds vs non-pretreated): higher; shoot growth ([7]; seedlings from similarly germinated seeds, with vs without pretreatment): did not differ; TBARs content ([7]; soil flooding, roots and leaves, (+DHQ) vs (-DHQ) seedlings): lower
